Drawing on PubChem BioAssay AID328 (DTP/NCI, 2004), this text covers T/C for 15 compounds.

In this assay the test system is BDF1 mice, P388 leukemia ip, median survival T/C. Nature of the assay: NCI In Vivo Anticancer Drug Screen. Data for tumor model P388 Leukemia (intraperitoneal) in B6D2F1 (BDF1) mice. To be noted: endpoint: median survival time, higher = longer survival. Put shortly: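 Compound-treated tumour-bearing mice were compared with vehicle-treated controls. Survival was recorded, and the value is the treated-group measurement divided by the control-group measurement (T/C).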

Where [1] appears, read: dose: 50.0 mg/kg/injection, schedule: Q01DX009 (ip), vehicle: saline.
The mark [2] stands for this setting: dose: 100.0 mg/kg/injection, schedule: Q04DX003 (ip), vehicle: saline.
The mark [3] stands for this setting: dose: 200.0 mg/kg/injection, schedule: Q04DX003 (ip), vehicle: saline.
The mark [4] stands for this setting: dose: 50.0 mg/kg/injection, schedule: Q01DX009 (ip), vehicle: saline with Tween-80.
[5] abbreviates: dose: 100.0 mg/kg/injection, schedule: Q01DX009 (ip), vehicle: saline.
Setting [6] is: dose: 200.0 mg/kg/injection, schedule: Q01DX009 (ip), vehicle: saline.

Values joined by “and” are separate entries in the source; they are usually repeats but may differ in a detail not shown here. Equal entries are not always repeated. Inconclusive results and toxic doses are left out. Residues, ends and D or L forms follow the SMILES beside them.

`O=C1c2ccccc2C(=O)c2c(NCCNCCO)ccc(NCCNCCO)c21`: the T/C (dose: 2.0 mg/kg/injection, schedule: Q01DX009 (ip), vehicle: water) was 163 % of control; the T/C (dose: 3.12 mg/kg/injection, schedule: Q01DX009 (ip), vehicle: saline) was 262 % of control and 403 % of control and 239 % of control; the T/C (dose: 4.0 mg/kg/injection, schedule: Q01DX009 (ip), vehicle: water) is 111 % of control; the T/C (dose: 4.0 mg/kg/injection, schedule: Q04DX003 (ip), vehicle: saline with Tween-80) is 154 % of control; the T/C (dose: 6.25 mg/kg/injection, schedule: Q01DX009 (ip), vehicle: saline) was 502 % of control and 202 % of control and 189 % of control; the T/C (dose: 8.0 mg/kg/injection, schedule: Q01DX009 (ip), vehicle: water) is 96 % of control. For the same compound, the T/C (dose: 8.0 mg/kg/injection, schedule: Q04DX003 (ip), vehicle: saline with Tween-80) is 165 % of control; the T/C (dose: 12.5 mg/kg/injection, schedule: Q01DX009 (ip), vehicle: saline) was 503 % of control and 517 % of control; the T/C (dose: 13.0 mg/kg/injection, schedule: Q04DX003 (ip), vehicle: saline + alcohol) was 222 % of control; the T/C (dose: 16.0 mg/kg/injection, schedule: Q04DX003 (ip), vehicle: saline with Tween-80) is 165 % of control; the T/C (dose: 21.6 mg/kg/injection, schedule: Q04DX003 (ip), vehicle: saline + alcohol) was 321 % of control; the T/C (dose: 25.0 mg/kg/injection, schedule: Q01DX009 (ip), vehicle: saline) was 517 % of control. Besides, the T/C is 192 % of control (dose: 32.0 mg/kg/injection, schedule: Q04DX003 (ip), vehicle: saline with Tween-80); 311 % of control (dose: 36.0 mg/kg/injection, schedule: Q04DX003 (ip), vehicle: saline + alcohol); 74 % of control under setting [1]; 201 % of control (dose: 60.0 mg/kg/injection, schedule: Q04DX003 (ip), vehicle: saline + alcohol); 274 % of control (dose: 64.0 mg/kg/injection, schedule: Q04DX003 (ip), vehicle: saline with Tween-80).
For the compound `COc1cc2c3c(c1O)Oc1ccc(cc1)C[C@@H]1c4c(cc(OC)c(O)c4Oc4ccc(cc4)C[C@H]3N(C)CC2)CCN1C`, the T/C was 95 % of control (dose: 40.0 mg/kg/injection, schedule: Q01DX010 (ip), vehicle: saline); 100 % of control (dose: 80.0 mg/kg/injection, schedule: Q01DX010 (ip), vehicle: saline); 105 % of control (dose: 160.0 mg/kg/injection, schedule: Q01DX010 (ip), vehicle: saline); 90 % of control (dose: 320.0 mg/kg/injection, schedule: Q01DX010 (ip), vehicle: saline).
Consider `COc1ccc(OC)c(NC(=O)NC(c2ccccc2)c2ccccc2)c1`, for which, under “dose: 12.5 mg/kg/injection, schedule: Q01DX009 (ip), vehicle: Klucel (hydroxypropylcellulose) (HPC)”, the T/C is 93 % of control.
With `COc1ccc(NC(=O)Oc2ccc3c(C)cc(=O)oc3c2)c(OC)c1`, the T/C reads like this: (dose: 200.0 mg/kg/injection, schedule: Q01DX009 (ip), vehicle: saline with Tween-80) 155 % of control; (dose: 400.0 mg/kg/injection, schedule: Q01DX009 (ip), vehicle: saline with Tween-80) 100 % of control.
As for `NCCCCC(N)C(=O)NC(CCCN=C(N)N)C(=O)O` (stereo not drawn) (H-Lys-Arg-OH; configuration not given here), the T/C by setting is: (dose: 3.12 mg/kg/injection, schedule: Q01DX009 (ip), vehicle: water) 101 % of control; (dose: 6.25 mg/kg/injection, schedule: Q01DX009 (ip), vehicle: water) 97 % of control and 99 % of control and 117 % of control; (dose: 12.5 mg/kg/injection, schedule: Q01DX009 (ip), vehicle: water) 105 % of control and 109 % of control; (dose: 25.0 mg/kg/injection, schedule: Q01DX009 (ip), vehicle: water) 101 % of control and 104 % of control and 118 % of control; (dose: 50.0 mg/kg/injection, schedule: Q01DX009 (ip), vehicle: water) 93 % of control and 94 % of control and 95 % of control; (dose: 100.0 mg/kg/injection, schedule: Q01DX009 (ip), vehicle: water) 90 % of control and 100 % of control and 113 % of control. In addition, where the note is “dose: 200.0 mg/kg/injection, schedule: Q01DX009 (ip), vehicle: water”, the T/C was 109 % of control.
For `Cc1nc2ccccc2c(Cl)c1C`, the T/C (dose: 25.0 mg/kg/injection, schedule: Q01DX009 (ip), vehicle: Klucel (hydroxypropylcellulose) (HPC)) was 102 % of control; the T/C (dose: 50.0 mg/kg/injection, schedule: Q01DX009 (ip), vehicle: Klucel (hydroxypropylcellulose) (HPC)) is 105 % of control; the T/C (dose: 100.0 mg/kg/injection, schedule: Q01DX009 (ip), vehicle: Klucel (hydroxypropylcellulose) (HPC)) was 103 % of control.
Consider `CCOC(=O)CNCc1cccnc1`, for which the T/C is 120 % of control under setting [2]; 117 % of control under setting [3]; 118 % of control (dose: 400.0 mg/kg/injection, schedule: Q04DX003 (ip), vehicle: saline).
Consider `NNc1nncn2c1cc1ccccc12`, for which the T/C reads like this: under setting [4], 86 % of control; (dose: 100.0 mg/kg/injection, schedule: Q01DX009 (ip), vehicle: saline with Tween-80) 107 % of control.
Regarding `O=C(NCCCCN1CC1)C(=O)NCCCCN1CC1`, the T/C reads like this: (dose: 6.25 mg/kg/injection, schedule: Q04DX003 (ip), vehicle: Klucel (hydroxypropylcellulose) (HPC)) 188 % of control; (dose: 12.5 mg/kg/injection, schedule: Q04DX003 (ip), vehicle: Klucel (hydroxypropylcellulose) (HPC)) 188 % of control; (dose: 25.0 mg/kg/injection, schedule: Q04DX003 (ip), vehicle: Klucel (hydroxypropylcellulose) (HPC)) 221 % of control.
As for `CCCCn1cnc2c(SC)ncnc21`, the T/C is, setting by setting: (dose: 22.0 mg/kg/injection, schedule: Q04DX003 (ip), vehicle: saline) 100 % of control; (dose: 33.0 mg/kg/injection, schedule: Q04DX003 (ip), vehicle: saline) 104 % of control; under setting [1], 95 % of control; (dose: 50.0 mg/kg/injection, schedule: Q04DX003 (ip), vehicle: saline) 104 % of control; (dose: 75.0 mg/kg/injection, schedule: Q04DX003 (ip), vehicle: saline) 113 % of control; under setting [5], 100 % of control. The T/C under setting [2] is 104 % of control, the T/C under setting [6] is 104 % of control and the T/C under setting [3] is 90 % of control.
`COc1ccc(C=NCCc2ccc(OC)c(OC)c2)cc1OC`: the T/C under setting [5] is 97 % of control; the T/C under setting [6] was 97 % of control; the T/C (dose: 400.0 mg/kg/injection, schedule: Q01DX009 (ip), vehicle: saline) is 105 % of control.
`Clc1ccc(CNc2ncnc3[nH]ncc23)cc1Cl`: the T/C is 100 % of control (dose: 12.5 mg/kg/injection, schedule: Q01DX009 (ip), vehicle: saline with Tween-80); 100 % of control (dose: 25.0 mg/kg/injection, schedule: Q01DX009 (ip), vehicle: saline with Tween-80); 100 % of control under setting [4].
Consider `c1ccc2c(c1)ccc1[nH]c3ccccc3c12`, for which the T/C is 116 % of control (dose: 100.0 mg/kg/injection, schedule: Q04DX003 (ip), vehicle: saline with Tween-80); 112 % of control (dose: 200.0 mg/kg/injection, schedule: Q04DX003 (ip), vehicle: saline with Tween-80); 105 % of control (dose: 400.0 mg/kg/injection, schedule: Q04DX003 (ip), vehicle: saline with Tween-80).
As to `CC12CCC(C=C1N1CCCCC1)C(C)(C)O2` (stereo not given), the T/C by setting is: (dose: 50.0 mg/kg/injection, schedule: Q01DX005 (ip), vehicle: saline with Tween-80) 101 % of control; (dose: 100.0 mg/kg/injection, schedule: Q01DX005 (ip), vehicle: saline with Tween-80) 101 % of control; (dose: 200.0 mg/kg/injection, schedule: Q01DX005 (ip), vehicle: saline with Tween-80) 106 % of control.
In the case of `c1ccc2c(c1)C1=NCCN1c1ccccc1-2`, the T/C was 86 % of control (dose: 5.3 mg/kg/injection, schedule: Q01DX009 (ip), vehicle: Klucel (hydroxypropylcellulose) (HPC)); 86 % of control (dose: 8.0 mg/kg/injection, schedule: Q01DX009 (ip), vehicle: Klucel (hydroxypropylcellulose) (HPC)); 115 % of control (dose: 10.0 mg/kg/injection, schedule: Q01DX009 (ip), vehicle: Klucel (hydroxypropylcellulose) (HPC)); 95 % of control (dose: 12.0 mg/kg/injection, schedule: Q01DX009 (ip), vehicle: Klucel (hydroxypropylcellulose) (HPC)); 108 % of control (dose: 17.7 mg/kg/injection, schedule: Q01DX009 (ip), vehicle: Klucel (hydroxypropylcellulose) (HPC)); 110 % of control (dose: 20.0 mg/kg/injection, schedule: Q01DX009 (ip), vehicle: Klucel (hydroxypropylcellulose) (HPC)). Moreover, the T/C (dose: 40.0 mg/kg/injection, schedule: Q01DX009 (ip), vehicle: Klucel (hydroxypropylcellulose) (HPC)) is 150 % of control.
